In patent publication US20250073251A1, “COMPOSITIONS AND METHODS AND USES THEREOF” (Journey Medical Corporation, priority 2019, published 2025):
Where “and” joins values, the source holds several entries; their conditions need not be identical. Equal values may be shown once.

Columns and labels:
[1] = system: moderate-to-severe acne vulgaris; conditions: human, in vivo
[2] = Toxicokinetics after daily dermal application
Protocol: Bioanalytical Sample Collection Blood samples (approximately 2 mL) are collected from all surviving animals via the abdominal vena cava through the thoracic inlet for determination of the plasma concentrations of adapalene and minocycline (see Tables 5 and 6). The animals were not fasted prior to blood collection, with the exception of the intervals that coincided with fasting for clinical pathology collections.
Blood samples are collected in tubes containing K2EDTA and placed on wet ice and centrifuged under refrigerated conditions. The resulting plasma is divided into 3 aliquots (100 μL in Aliquot 1 [minocycline], 500 μL in Aliquot 2 [adapalene], and any remaining plasma in Aliquot 3) in pre-labeled cryovials. All aliquots are stored frozen at −60° C. to −90° C.
The TK parameters are determined for adapalene and minocycline from individual concentration-time data by the Testing Facility.

## COc1ccc(-c2ccc3cc(C(=O)O)ccc3c2)cc1C12CC3CC(CC(C3)C1)C2 [0.3% adapalene foam]
[1]
  AE Maximum Severity: Mild: 14 (12.5%)
  AE Maximum Severity: Moderate: 4 (3.6%)
  AE Maximum Severity: Severe: 2 (1.8%)
  Abdominal pain: 0 subjects (%)
  Acne, (%) of subjects: (1.8%)
  Buming sensation: 0 subjects (%)
  Burning and Stinging: None, subjects n (%): 82 (78.1%) and 97 (92.4%) and 89 (89.9%) and 105 (93.8%)
  Burning and Stinging: Severe, subjects n (%): 0
  Burning sensation: 0 subjects (%)
  Constipation: 0 subjects (%)
  Dehydration: 0 subjects (%)
  Dermatitis contact: 0 subjects (%)
  Diastolic Blood Pressure, Max: 58, 98 mmHg and 56, 93 mmHg and 57, 94 mmHg and 48, 94 mmHg
  Diastolic Blood Pressure, Mean: 73.1 mmHg and 72.8 mmHg and 72.1 mmHg
  Diastolic Blood Pressure, Median: 72.0 mmHg
  Diastolic Blood Pressure, Min: 58, 98 mmHg and 56, 93 mmHg and 57, 94 mmHg and 48, 94 mmHg
  Dryness: Mild, subjects n (%): 27 (24.1%) and 26 (24.8%) and 17 (17.2%)
  Dryness: None, subjects n (%): 82 (73.2%) and 75 (71.4%) and 77 (73.3%) and 81 (81.8%)
  Dryness: Severe, subjects n (%): 0
  Erythema: Mild, subjects n (%): 36 (32.1%) and 27 (25.7%) and 36 (34.3%) and 27 (27.3%)
  Erythema: None, subjects n (%): 51 (45.5%) and 55 (52.4%) and 58 (55.2%) and 62 (62.6%)
  Erythema: Severe, subjects n (%): 1 (0.9%) and 2 (1.9%) and 1 (1.0%)
  Heart Rate, Max: 52, 100 beats/min and 52, 99 beats/min and 51, 99 beats/min and 52, 96 beats/min
  Heart Rate, Mean: 75.9 beats/min and 76.1 beats/min and 75.7 beats/min and 74.1 beats/min
  Heart Rate, Median: 73.0 beats/min and 77.0 beats/min and 76.0 beats/min
  Heart Rate, Min: 52, 100 beats/min and 52, 99 beats/min and 51, 99 beats/min and 52, 96 beats/min
  Hyperaesthesia: 0 subjects (%)
  Hyperpigmentation: Mild, subjects n (%): 20 (19.0%) and 19 (19.2%) and 31 (27.7%) and 22 (21.0%)
  Hyperpigmentation: Moderate, subjects n (%): 4 (3.8%) and 4 (4.0%) and 6 (5.4%)
  Hyperpigmentation: None, subjects n (%): 81 (77.1%) and 76 (76.8%) and 75 (67.0%) and 79 (75.2%)
  Hyperpigmentation: Severe, subjects n (%): 0
  Immune system disorders: 0 subjects (%)
  Infectious mononucleosis: 0 subjects (%)
  Itching: None, subjects n (%): 87 (77.7%) and 79 (75.2%) and 86 (81.9%) and 86 (86.9%)
  Ligament rupture: 0 subjects (%)
  Metabolism and nutrition disorders: 0 subjects (%)
  Nail discolouration: 0 subjects (%)
  Nasopharyngitis: 0 subjects (%)
  Nausea: 0 subjects (%)
  Neoplasms benign, malignant and unspecified (incl cysts and polyps): 0 subjects (%)
  Number (%) of subjects withdrawn from study due to TEAE: 3 (2.7%) subjects (%)
  Number (%) of subjects withdrawn from study due to treatment-related TEAE: 3 (2.7%) subjects (%)
  Oropharyngeal pain: 0 subjects (%)
  Otitis media acute: 0 subjects (%)
  Pain: 0 subjects (%)
  Pain of skin: 0 subjects (%)
  Paranasal sinus discomfort: 0 subjects (%)
  Pharyngitis streptococcal: 0 subjects (%)
  Pyogenic granuloma: 0 subjects (%)
  Rash, (%) of subjects: (0.9%)
  Rhinorrhoea: 0 subjects (%)
  Scaling: Mild, subjects n (%): 21 (18.8%) and 19 (18.1%) and 17 (16.2%) and 12 (12.1%)
  Scaling: Moderate, subjects n (%): 2 (1.8%) and 3 (2.9%) and 2 (1.9%) and 3 (3.0%)
  Scaling: None, subjects n (%): 89 (79.5%) and 83 (79.0%) and 86 (81.9%) and 84 (84.8%)
  Scaling: Severe, subjects n (%): 0
  Sciatica: 0 subjects (%)
  Seasonal allergy: 0 subjects (%)
  Serious AE: 0
  Subjects reporting at least one treatment-related TEAE: 10 (8.9%) subjects (%)
  Subjects with any TEAE leading to discontinuation of study drug: 3 (2.7%)
  Subjects with at least one AE: 20 (17.9%)
  Systolic Blood Pressure, Max: 92, 150 mmHg and 96, 150 mmHg and 95, 152 mmHg and 92, 149 mmHg
  Systolic Blood Pressure, Mean: 116.7 mmHg
  Systolic Blood Pressure, Min: 92, 150 mmHg and 96, 150 mmHg and 95, 152 mmHg and 92, 149 mmHg
  TEAE: Abdominal pain: 0
  TEAE: Acne: 2 (1.8%)
  TEAE: Acute sinusitis: 1 (0.9%)
  TEAE: Burning sensation: 0
  TEAE: Burns first degree: 1 (0.9%)
  TEAE: Constipation: 0
  TEAE: Cough: 1 (0.9%)
  TEAE: Dehydration: 0
  TEAE: Dermatitis contact: 0
  TEAE: Diarrhoea: 1 (0.9%)
  TEAE: Dry skin: 4 (3.6%)
  TEAE: Eczema: 1 (0.9%)
  TEAE: Erythema of eyelid: 1 (0.9%)
  TEAE: Eye disorders: 3 (2.7%)
  TEAE: Eye irritation: 2 (1.8%)
  TEAE: Facial bones fracture: 1 (0.9%)
  TEAE: Gastrointestinal disorders: 1 (0.9%)
  TEAE: General disorders and administration site conditions: 1 (0.9%)
  TEAE: Headache: 2 (1.8%)
  TEAE: Hordeolum: 1 (0.9%)
  TEAE: Hyperaesthesia: 0
  TEAE: Immune system disorders: 0
  TEAE: Infections and infestations: 8 (7.1%)
  TEAE: Infectious mononucleosis: 0
  TEAE: Injury, poisoning and procedural complications: 2 (1.8%)
  TEAE: Ligament rupture: 0
  TEAE: Ligament sprain: 1 (0.9%)
  TEAE: Metabolism and nutrition disorders: 0
  TEAE: Nail discolouration: 0
  TEAE: Nasopharyngitis: 0
  TEAE: Nausea: 0
  TEAE: Neoplasms benign, malignant and unspecified (incl cysts and polyps): 0
  TEAE: Nervous system disorders: 2 (1.8%)
  TEAE: Oropharyngeal pain: 0
  TEAE: Otitis media acute: 0
  TEAE: Pain: 0
  TEAE: Pain of skin: 0
  TEAE: Pharyngitis: 1 (0.9%)
  TEAE: Pharyngitis streptococcal: 0
  TEAE: Pyogenic granuloma: 0
  TEAE: Rash: 2 (1.8%)
  TEAE: Respiratory, thoracic and mediastinal disorders: 1 (0.9%)
  TEAE: Rhinorrhoea: 0
  TEAE: Sciatica: 0
  TEAE: Seasonal allergy: 0
  TEAE: Sinusitis: 1 (0.9%)
  TEAE: Skin discolouration: 1 (0.9%)
  TEAE: Skin irritation: 1 (0.9%)
  TEAE: Staphylococcal infection: 1 (0.9%)
  TEAE: Toothache: 0
  TEAE: Upper respiratory tract infection: 1 (0.9%)
  TEAE: Viral upper respiratory tract infection: 1 (0.9%)
  TEAE: Vomiting: 0
  Toothache: 0 subjects (%)
  Treatment-Related AE: 10 (8.9%)
  Vomiting: 0 subjects (%)
  Weight, Max: 43.5, 163.3 kg and 43.5, 166.0 kg
  Weight, Mean: 77.06 kg and 77.28 kg
  Weight, Median: 71.10 kg and 71.50 kg
  Weight, Min: 43.5, 163.3 kg and 43.5, 166.0 kg
  Withdrawal from Study, Primary Reason: Adverse Event, % of subjects: 3 (2.7%)
  Withdrawal from Study, Primary Reason: Adverse Event, number of subjects: 3 (2.7%)
  adverse events assessed as mild in severity: 12.5%
  dry skin adverse event: 3.6%
  overall tolerability (LSTA) scores compared to the other treatment groups: lower
  subject discontinuations due to a treatment emergent adverse event: 2.7%
  subjects with TEAEs that led to discontinuation of study drug: 3 subjects
  subjects with severe (treatment related) TEAE: 1.8%
  treatment emergent adverse events, frequency: 8.9%
[1]; sc
  TEAE: Skin and subcutaneous tissue disorders: 10 (8.9%)

## COc1ccc(-c2ccc3cc(C(=O)O)ccc3c2)cc1C12CC3CC(CC(C3)C1)C2 [adapalene]
[2]; 0.25 to […] adapalene with […] minocycline, Day 91
  mean Cmax and AUC0-24hr for adapalene versus dose: approximately dose proportional
[2]; Day 91
  systemic exposure, dependence on sex: independent of sex
[2]; Group 3, adapalene […] alone, daily dermal, Day 91, minimum-maximum (median not reported)
  Tmax: (0-8) hr
[2]; Group 4, adapalene […] + minocycline […] FCD105 Foam, Day 1, minimum-maximum (median not reported)
  Tmax: (8-24) hr
[2]; Group 4, adapalene […] + minocycline […] FCD105 Foam, Day 91, minimum-maximum (median not reported)
  Tmax: (0-24) hr
[2]; Göttingen, minipig, plasma, topical or ocular, […], Tmax, Group 3, adapalene […] alone, daily dermal, Day 1, median
  Tmax: 24 h
[2]; Göttingen, minipig, plasma, topical or ocular, […], Tmax, Group 5, adapalene […] + minocycline […] FCD105 Foam, Day 1, median
  Tmax: 24 h
[2]; Göttingen, minipig, plasma, topical or ocular, […], Tmax, Group 5, adapalene […] + minocycline […] FCD105 Foam, Day 91, median
  Tmax: 1 h
[2]; Göttingen, minipig, plasma, topical or ocular, […], Tmax, Group 6, adapalene […] + minocycline […] FCD105 Foam, Day 1, median
  Tmax: 24 h
[2]; Göttingen, minipig, plasma, topical or ocular, […], Tmax, Group 6, adapalene […] + minocycline […] FCD105 Foam, Day 91, median
  Tmax: 1 h
